Data taken from patent publication US11066379B2 (THE TEXAS A&M UNIVERSITY SYSTEM, priority 2018, dated 2021).
Several values for one entry are separate records, joined by “and”; a condition that tells them apart may be missing. Equal entries are not always repeated. Entries after “also recorded” stand apart in the source; their conditions may differ.

Tests used:
SH-SY5Y cells [1] = experiment: Cellular toxicity in SH-SY5Y cells (MTT, 24 h); format: cell-based; conditions: 24 h; for cytotoxicity toward SH-SY5Y cells: 10-0.01 μM, in words
From the text: (§1) The MTT (3-[4,5-dimethylthiazol-2-yl]-2,5-diphenyltetrazoliumbromide) assay was used to determine the cytotoxicity of gracilin derivatives in T lymphocytes (Burton, J. D. Methods Mol. Med., 2005, 110, 69-78) and SH-SY5Y cells and the protective effect of these compounds against H2O2 insult in neuroblastoma cells as previously described (Leiros, M., Alonso, E., Sanchez, J. A., Rateb, M. E., Ebel, R., Houssen, W. E., Jaspars, M., Alfonso, A. and Botana, L. M. ACS Chem. Neurosci., 2014, S, 71-80). Human T lymphocytes were cultured in 24 well plates at the concentration of 2.5×10^6 cells/mL and exposed to different compound concentrations (0.01, 0.1, 1 and 10 μM) added to the culture medium. Human T cells were maintained in the presence of the pure compound at 37° C. in humidified 5% CO2/95% air atmosphere for 48 h.
(§2) SH-SY5Y cells were seeded in 96-well plates at a density of 2.5×10^5 cells/mL and allowed to adhere for 24 h. At first, cells were treated only with compounds at concentrations ranging from 10-0.01 μM for 24 h to determine their possible cytotoxic effects. Experiments were carried out three times. For neuroprotective experiments, cells were treated with compounds at non-toxic concentrations (1 μM→1 nM) and 150 μM H2O2 for 6 h. Briefly, cells were washed three times with saline solution and 200 μL of MTT (500 μg/mL) dissolved in saline buffer were added to each well. Following 1 h of incubation at 37° C., the cells were disaggregated with sodium dodecyl sulphate at 5%.
Absorbance of formazan crystals was measured at 595 nm with a spectrophotometer plate reader. Saponin was used as death control and its absorbance was subtracted from the other data. All experiments were performed four times.

SH-SY5Y cells [2] = experiment: Neuroprotection against H2O2 toxicity, cell viability by MTT; format: cell-based, human; conditions: 150 μM H2O2 co-treatment 6 h; 0.01, 0.1 and 1 μM
Procedure: as §2, with “5%. Absorbance of formazan crystals was measured at 595 nm with a spectrophotometer plate reader. Saponin was used as death control and its absorbance was subtracted from the other data. All experiments were performed four times.” for “5%.”

SH-SY5Y cells [3] = experiment: Intracellular ROS levels (carboxy-H2DCFDA) after H2O2; format: cell-based, human; conditions: 150 μM H2O2 co-treatment 6 h
Procedure: Intracellular levels of reactive oxygen species (ROS) were determined with carboxy-H2DCFDA (5-(and-6)-carboxy-2′,7′-dichlorodihydrofluorescein diacetate). This dye diffuses through the cellular membrane and is converted by cellular esterases to carboxy-H2DCFH (non-fluorescent). When carboxy-H2DCFH is oxidized by ROS, it becomes fluorescent (Halliwell, B. and Whiteman, M. Br. J. Pharmacol., 2004, 142, 231-255). Cells were seeded at a density of 2.5×10^5 cells/mL in 96-well plates and allowed to attach for 24 h. Following treatment with compounds at various concentrations (1 μM→1 nM) and 150 μM H2O2 for 6 h, SH-SY5Y cells were washed twice with serum-free culture medium. Then, carboxy-H2DCFDA 20 μM dissolved in serum-free culture medium was added to each well and the cells were incubated for 1 h at 37° C. After this incubation, the medium with the fluorescent dye was replaced with PBS and the plate was incubated for 30 min at 37° C. Fluorescence was read at 527 nm, with an excitation wavelength of 495 nm. All experiments were performed four times.

SH-SY5Y cells [4] = experiment: Glutathione assay (Thiol Tracker Violet) after H2O2; format: cell-based, human; conditions: 150 μM H2O2 co-treatment 6 h, two or more concentrations
Procedure: Glutathione (GSH) levels were determined using Thiol Tracker Violet dye, which reacts with reduced thiols in cells. Reduced glutathione represents the majority of intracellular free thiols, so this probe can be used to estimate its levels in cells. Measurements were performed following manufacturer's protocol. Cells were seeded in 96-well plates at 2.5×10^5 cells/mL for 24 h and treated with compounds at various concentrations (1 μM→1 nM) and 150 μM H2O2. After 6 h, SH-SY5Y cells were washed twice with PBS and loaded with 100 μL of prewarmed Thiol Tracker Violet dye (10 μM) for 30 min at 37° C. The fluorescence was measured at 404 nm excitation and emission at 526 nm. All experiments were performed four times.

[5] = system: mitochondrial membrane permeability transition pore (mPTP) in SH-SY5Y cells; experiment: Mitochondrial membrane permeability transition pore (mPTP) measurement, TBHP-induced opening; format: cell-based, human; conditions: 1 mM TBHP
Procedure: The blockage of mPTP by compounds was determined with the MitoProbe Transition Assay Kit following manufacturer's instructions. Briefly, SH-SY5Y human neuroblastoma cells were re-suspended in pre-warmed PBS/Ca^+2 buffer at a final concentration of 1×10^6 cells/mL. Cells were loaded with 0.01 μM Calcein-AM and incubated at 37° C. for 15 min. Then, 0.4 mM CoCl2 and compounds at selected concentrations were added and incubated for 15 min at 37° C. […] After this incubation, cells were centrifuged and re-suspended in 100 μL of PBS. Just before analyzing, 1 mM tert-butyl hydroperoxide (TBHP) was added to the samples to induce pore opening. Fluorescence intensity was measured at 488 nm excitation and 517 nm emission wavelengths by flow cytometry using the ImageStreamMKII (Amnis Corporation, Merck-Millipore) and […] software. The fluorescence of 10,000 events was analyzed with IDEASR Application vs 6.0 (Amnis Corporation, Merck-Millipore). Experiments were carried out four times.

CypD = CypD (Homo sapiens, UniProt P30405); experiment: CypD enzyme inhibition assay (PPIase activity); format: biochemical; conditions: CypD 1 nM
Procedure: The inhibition of the peptidyl-prolyl cis-trans isomerase (PPIase) activity of compounds was determined by following the rate of hydrolysis of N-succinyl-Ala-Ala-Pro-Phe-pnitroanilide by chymotrypsin. CsA was used as positive control. The assay was performed as previously described (Yan, W., Qing, J., Mei, H., Nong, J., Huang, J., Zhu, J., Jiang, H., Liu, L., Zhang, L. and Li, J. Bioorg. Med. Chem. Lett., 2015, 25, 5682-5686) with small modifications. The assay buffer (20 mM Tris-HCl, 50 mM NaCl, pH 7.8), CypD (1 nM) and the compounds at concentrations ranging from 0.001 to 10 μM were pre-cooled at 4° C. for 1 h. After that time, chymotrypsin at 0.4 mg/mL in 1 mM HCl was added to each well. The reaction was initiated by the addition of the peptide (0.1 mg/mL in 500 mM LiCl in THF). The absorbance at 380 nm was monitored every 30 sec for 5 min with a spectrophotometer plate reader. The blank rates of hydrolysis (in absence of CypD) were subtracted from the rates in the presence of the enzyme. The half-maximal inhibitory concentration (IC50) was calculated by fitting the data with a log(inhibitor) vs. response model of GraphPad Prism 5.0 software. All experiments were performed four times.

CypA = target: T1, CypA (Homo sapiens, UniProt P62937); experiment: CypA PPIase activity inhibition; format: biochemical; conditions: up to 10 μM, in words
T1 construct: Active human CypA full-length protein was from Abcam; purchased Abcam

SHSY5Y cells = experiment: Neuroprotective effects summarised over all five assays (viability, TMRM, ROS, GSH, mPTP); format: cell-based, human; conditions: 0.001, 0.01 or 0.1 μM; H2O2 challenge
Procedure: As described previously, neuroprotective agents can mediate their effects through inhibition of CypD, an isoform of CypA. […] All assays were performed at the indicated concentrations (0.001, 0.01, or 0.1 μM) based on initial cytotoxicity determined with SHSY5Y cells (Table 1).

[6] = target: T2, active human CypA protein (Homo sapiens, UniProt P62937); experiment: Binding to immobilized CypA by surface plasmon resonance (SPR); conditions: SPR, immobilized CypA
T2 construct: Active human CypA full-length protein was from Abcam; purchased Abcam
Procedure: Sensor surface activation and ligand immobilization were performed by using HBS-EP as running buffer at a flow rate of 5 μL/min and 25° C. CM5 sensor chips were used as surface where Cyp A or D was immobilized as ligand. The CM5 chip is a glass slide coated with a thin layer of gold with a matrix of carboxymethylated dextran covalently attached. The CM5 chip was activated using an amine coupling kit. […] After activation, the ligand, 100 μg/mL of active human CypA protein dissolved in sodium acetate 10 mM at pH 4.5 was added to be immobilized over a CM5 sensor chip. Finally ethanolamine-HCl was injected to deactivate the remaining active esters and to avoid non-specific binding. […] Once analytes were tested and interaction was observed, individual binding curves were analyzed by determining the kinetic constants of analytes-CypA binding, namely, the observed rate constant (Kobs), the association rate constant (Kass), the dissociation rate constant (Kdiss), and the kinetic equilibrium dissociation constant (KD). At equilibrium, by definition, […]. The pseudo-first order association rate constants Kobs (s^-1) were determined for each compound concentration by using the 1:1 Langmuir association model of BiaEvaluation software (BiaCore, Uppsala, Sweden). Then a representation of Kobs against the corresponding concentration of each compound was done. […] From the equation of these representations, Kass, M^-1 s^-1, gradient of the plot, and […]^-1, intercept of the plot was obtained. Within these two values, the kinetic equilibrium dissociation constant KD for each analyte-CypA binding was obtained. The duration of the sample injection was 2 min at 10 μL/min flow rate. Next, dissociation of bound molecules in HBS-EP buffer flow was studied. The bound drugs were removed from the chip surface before the next injection by adding 1 M Glycine-HCl at pH 2.5 for 1 min. The association phase was used to quantify the compound-CypA or D interactions. All experiments were performed four times.

[7] = system: Interleukin-2 (IL-2) production in human T lymphocytes; experiment: Interleukin-2 release in Con A-stimulated human T lymphocytes (ELISA); format: cell-based; conditions: 2 h pre-treatment at non-toxic concentration, Con A 50 μg/mL 48 h
Procedure: Then, cells were stimulated with Concanavalin A (Con A) at 50 μg/mL for 48 h to induce IL-2 release. The amount of IL-2 released to the culture medium was evaluated using Human IL-2 ELISA kit. Experiments were carried out four times.

[8] = Viability of human T lymphocytes (MTT assay, 48 h); format: cell-based; conditions: human; 1 μM, 48 hours; read-out: decrease in cell viability
From the text: as §1
(§3) Saponin was used as cellular death control and its absorbance was subtracted from the other data. After the incubation period with compounds, assay was performed. First cells were centrifuged (1500 rpm, 5 min, 4° C.). The pellets were resuspended in saline solution with MTT (250 μg/mL) and then incubated at 37° C. during 30 min. After washing off excess MTT twice with saline solution, cells were disaggregated with H2O and sonicated for 1 min and the absorbance of the colored formazan salt was measured at 595 nm in a spectrophotometer plate reader. All experiments were performed three times.

human T lymphocytes = experiment: Viability of human T lymphocytes (MTT assay, 48 h); format: cell-based; conditions: in words
From the text: as §1, §3

EGF-R = EGF-R (Homo sapiens, UniProt P00533); conditions: 100 μM; cited from earlier work
Chain of EGF-R (P00533 25-1210, species assumed): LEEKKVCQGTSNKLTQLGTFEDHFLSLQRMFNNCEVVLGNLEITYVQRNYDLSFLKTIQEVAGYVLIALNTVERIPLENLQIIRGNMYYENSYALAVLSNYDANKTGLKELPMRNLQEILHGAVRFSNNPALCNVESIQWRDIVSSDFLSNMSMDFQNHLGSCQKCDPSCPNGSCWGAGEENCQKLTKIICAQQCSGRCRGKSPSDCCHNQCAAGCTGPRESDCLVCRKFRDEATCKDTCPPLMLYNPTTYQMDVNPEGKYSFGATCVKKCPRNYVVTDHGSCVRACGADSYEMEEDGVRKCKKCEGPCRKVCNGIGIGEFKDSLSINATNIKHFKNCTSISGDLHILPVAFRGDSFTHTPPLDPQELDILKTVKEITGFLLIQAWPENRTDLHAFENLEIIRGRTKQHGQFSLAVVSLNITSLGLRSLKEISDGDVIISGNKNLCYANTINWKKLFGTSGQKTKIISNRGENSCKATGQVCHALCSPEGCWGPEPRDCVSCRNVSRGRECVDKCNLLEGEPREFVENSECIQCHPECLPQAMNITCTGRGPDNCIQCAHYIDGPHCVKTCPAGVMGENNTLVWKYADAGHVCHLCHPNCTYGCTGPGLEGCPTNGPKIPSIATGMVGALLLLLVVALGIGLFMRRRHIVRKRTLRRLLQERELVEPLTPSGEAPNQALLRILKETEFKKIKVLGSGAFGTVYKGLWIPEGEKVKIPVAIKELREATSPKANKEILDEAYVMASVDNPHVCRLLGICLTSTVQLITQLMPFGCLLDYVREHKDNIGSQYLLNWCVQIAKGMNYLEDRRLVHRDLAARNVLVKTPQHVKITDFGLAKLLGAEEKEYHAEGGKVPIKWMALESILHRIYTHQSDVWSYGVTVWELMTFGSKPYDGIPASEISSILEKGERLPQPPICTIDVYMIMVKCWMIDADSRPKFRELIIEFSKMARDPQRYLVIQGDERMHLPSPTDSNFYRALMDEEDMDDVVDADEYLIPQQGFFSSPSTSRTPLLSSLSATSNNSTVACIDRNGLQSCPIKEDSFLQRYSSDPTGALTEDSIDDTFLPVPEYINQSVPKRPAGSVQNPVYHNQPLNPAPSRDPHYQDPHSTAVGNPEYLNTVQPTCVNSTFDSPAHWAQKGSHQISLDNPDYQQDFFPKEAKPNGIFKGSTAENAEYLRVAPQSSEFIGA

T2 sequence (P62937 whole entry): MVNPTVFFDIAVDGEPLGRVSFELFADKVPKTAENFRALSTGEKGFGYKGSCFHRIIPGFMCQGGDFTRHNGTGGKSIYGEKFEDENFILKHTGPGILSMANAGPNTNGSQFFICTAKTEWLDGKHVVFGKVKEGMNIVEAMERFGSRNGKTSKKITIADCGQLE
Chain of CypD (P30405 30-207): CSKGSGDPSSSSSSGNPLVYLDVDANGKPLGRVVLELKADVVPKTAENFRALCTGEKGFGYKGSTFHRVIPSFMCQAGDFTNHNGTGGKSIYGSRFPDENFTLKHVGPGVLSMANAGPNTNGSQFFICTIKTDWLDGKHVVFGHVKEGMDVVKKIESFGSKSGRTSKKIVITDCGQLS
T1 sequence (P62937 whole entry): as the sequence (P62937 whole entry) above

Row | SMILES | cytotoxicity toward SH-SY5Y cells (SH-SY5Y cells [1]) | protection of cell viability against H2O2 insult (SH-SY5Y cells [2]) | ROS levels (SH-SY5Y cells [3]) | GSH levels (SH-SY5Y cells [4]) | mPTP opening [5] | IC50 (CypD) | CypA PPIase inhibitory activity (CypA) | neuroprotective / antioxidant effects based on all five assays (SHSY5Y cells) | Kd [6] | Inhibition of IL-2 production [7] [%] | cytotoxicity at 48 h, 1 μM [8] [%] | impact on T-cell viability (human T lymphocytes) | IC50 (SH-SY5Y cells [1]; Homo sapiens, SH-SY5Y, read-out: IC50 (cellular toxicity)) [nM] | EGF-R inhibition (EGF-R) [%]
1 | CC(=O)OC[C@@H]1CCC(C2(C)CCCCC2)=C[C@@H]1COC(C)=O [Compound 27b, ((3S,4R)-1′-methyl-[1,1′-bi(cyclohexan)]-1-ene-3,4-diyl)bis(methylene) diacetate] | led to cell death at the higher concentrations tested | protected cells against H2O2 insult at almost all concentrations | diminishing ROS at two or three concentrations | recovered GSH levels | prevent TBHP-induced opening | 480 nM and < 500 nM | inactive | displayed significant neuroprotective effects; also recorded: significant antioxidant activity in all five assays |  |  |  |  |  | 
2 | CC(=O)O[C@H]1OC[C@@H]2C=C([C@]3(C)CCCC(C)(C)C3)CC[C@H]12 [Compound 29b, (1R,3aR,7aS)-5-(1,3,3-trimethylcyclohexyl)-1,3,3a,6,7,7a-hexahydroisobenzofuran-1-yl acetate] | led to cell death at the higher concentrations tested |  |  |  |  |  |  |  | ~3000 nM and 2800 to 6800 nM | ~0 | 15 to 25 | relatively non-toxic | 7900 | 
3 | C/C=C1\C([C@@]2(C)CCCC(C)(C)C2)=CC[C@H]2[C@H](OC(C)=O)O[C@H](OC(C)=O)[C@@H]12 [gracilin A, reference compound] |  |  |  |  |  |  |  |  | 2530 ± 400 nM |  |  |  |  | 70
